Two compounds from PMC4886532, “A highly soluble, non-phototoxic, non-fluorescent blebbistatin derivative” (Scientific Reports, 2016) can be followed below.

Converted amounts (≈) assume the structure as drawn. Where only a bound is given, the exact number is not on record here.

A short description of data set [1]: Solubility assays in assay buffer (supernatant concentration after centrifugation). As to conditions: for Solubility: room temperature.
Experimental: 50 μM of the inhibitors were dissolved in assay buffer (see Experimental Procedures) containing 0.1 or 1 vol/vol% DMSO, centrifuged at the indicated times and the concentration of the supernatants were determined at each time point (Fig. 2a,b).
The DMSO content was 1%. […] The experiments were repeated three times.
For another data set, the system named is M2 cells. The experiment in a line: Inhibition of blebbing (blebbing index) of M2 cells. The class given is cell-based, human. As for the experimental part: Next, we compared the non-muscle myosin II inhibition by para-aminoblebbistatin, para-nitroblebbistatin and blebbistatin in human melanoma (M2) and HeLa cells. As blebbistatin acquired its name from its ability to block blebbing of M2 cells, we compared blebbing indices[17] of M2 cells in time, incubated in the three different myosin II inhibitors at different concentrations (Fig. 3c–e). Even 5 μM concentrations of the myosin II inhibitors achieved significant decrease in the blebbing indices of the cells within an hour, whereas higher concentrations of the inhibitors completely stopped blebbing of the cells within >40–60 minutes (10 μM) or >20 minutes (25 and 50 μM).
For blebbing index determination, M2 cells were incubated for 30 minutes in PBS in every case prior to the addition of inhibitors, in order to initiate extensive blebbing. Blebbing of the cells was monitored before as well as after inhibitor addition to the cells. DMSO concentration was 0.1 vol/vol% in all experiments. Blebbing index was calculated by summing the initiated blebs in a 5-minute interval (starting at the indicated time points) on a given standard area[17] (whole cells with similar size, diameter = 12 ± 1 μm) and normalizing it to the blebbing index prior to inhibitor treatment.

Data set [2] has as its target T1, rabbit skeletal muscle myosin S1 (SkS1) (Oryctolagus cuniculus, UniProt Q28641).
T1 construct: SkS1 (rabbit skeletal S1 fragment); from tissue; host or cells: rabbit skeletal muscle
The experiment in a line: Steady state basal ATPase, SkS1. The class given is biochemical. As to conditions: 25 °C.

The test system of another data set is zebrafish heart muscle. Kind of data set: Heart beating and amplitude of heart muscle contraction. The class given is in vivo, zebrafish (Danio rerio). As to conditions: 20 μM, 6 dpf. As for the experimental part:
(§1) Since the myosin II inhibitors decrease the ATPase activity of SkS1 in vitro, we tested their inhibition on zebrafish skeletal muscle in vivo. We investigated the fast escape response (C-start) reflex of 6 dpf fish evoked by standardized tapping stimuli (Video 1). […] The velocity of the rotating heads of the embryos were quantified (maximal angular velocity) in the absence and in the presence of increasing concentrations of the myosin II inhibitors (2, 5, 10, 20 μM), monitored for 4 hours. The half maximal effective concentration (EC50) values for the inhibition of the maximal angular velocity by the myosin II inhibitors are below 2 μM since even at 2 μM the inhibitory effects were >90% for all inhibitors. We experienced that the inhibitory effect of para-aminoblebbistatin is exerted much slower than that of blebbistatin and para-nitroblebbistatin, probably due to its slower uptake (half inhibitions at […], respectively) (Supplementary Figure 1). To further evaluate the specificity of blebbistatin and its derivatives on different myosin II isoforms, we examined the effect of the inhibitors on 6 dpf (days post fertilization) zebrafish heart muscle in vivo. We monitored heart beating and the amplitude of heart muscle contraction before and after the addition of 20 μM of the inhibitors to the specimens.
(§2) The tapping force was standardized. […] For the cytotoxicity assay, zebrafish embryos were incubated in E3 medium containing 0 μM (Control), 5 μM, 10 μM or 20 μM of para-aminoblebbistatin, para-nitroblebbistatin or blebbistatin in 0.1 vol/vol% final concentration of DMSO and monitored for 70 hours.

The target of data set [3] is T1, rabbit skeletal muscle myosin S1 (SkS1). Kind of data set: Steady state actin activated ATPase, SkS1. The class given is biochemical. The settings on record: for IC50: 45 μM actin, 25 °C. As for the experimental part: […]. Myosin and actin together with the indicated concentration of the inhibitor were pre-incubated for 5 minutes at room temperature and the measurements were initiated with 1 mM ATP. Data were corrected for background ATPase activity of actin. G-actin was prepared accordingly from rabbit skeletal muscle[24] and polymerized by 2 mM MgCl2 for 1 hour at room temperature. Measurements were performed in low salt buffer containing 5 mM HEPES, 2 mM MgCl2, 0.1 mM EGTA and 2 mM DTT at pH 7.2 or assay buffer containing 20 mM HEPES, 40 mM NaCl, 4 mM MgCl2 at pH 7.3 for basal ATPase activity measurements with DdMD.

For a further data set, the system named is HeLa cells. Kind of data set: Wound healing assay (cell motility). The class given is cell-based, human. As to conditions: 20 μM, 24 hours, uncoated glass; 100% = total diameter of the wound; control 30.6 ± 5.4%. The protocol:
For wound healing assays, 200 μl of HeLa cells were plated on 35 mm borosilicate glass imaging dishes at 300,000 cells/ml concentrations and incubated for 24 hours. 1 hour prior to wounding, cells were incubated in 20 μM of the different myosin II inhibitors. After one hour, scratches were made with pipette tips in monolayer cultures and the motility of cells for occupying the wound was monitored for 24 hours with a Foculus Digital Camera (IEEE1394). Analysis of cell motility was carried out by ImageJ, by measuring the distance between two lines fitted on the two sides of the approaching cell edges created by the pipette tips.

Data set [4] concerns cldnb:gfp zebrafish embryos. Kind of data set: Posterior lateral line primordium (pLLp) migration. The class given is in vivo, zebrafish (Danio rerio). As to conditions: 20 μM, 24 hours of incubation. The protocol:
However, the highly fluorescent, dense precipitates of blebbistatin disturb imaging in the GFP channel of the microscope. […] In this experiment, cldnb:gfp zebrafish embryos were imaged by an epifluorescent microscope after 24 hours of incubation in the presence of 20 μM concentrations of the indicated inhibitors (Fig. 4d) in order to detect the effect of myosin II inhibition on the proliferating leading edge of the posterior lateral line primordium (pLLp)[21] and visualize the effect of the precipitates by epifluorescent microcopy. […] In the case of para-aminoblebbistatin treatment, the GFP signal of the migrating pLLp can be visualized clearly, while the precipitates of the two other inhibitors highly disturbed the imaging.

The subject of data set [5] is zebrafish skeletal muscle. The experiment in a line: Fast escape response (C-start), maximal angular velocity. The class given is in vivo, zebrafish (Danio rerio). The settings on record: 2 μM. The protocol:
as §1, §2

T1 sequence (Q28641 1-844 limits assumed): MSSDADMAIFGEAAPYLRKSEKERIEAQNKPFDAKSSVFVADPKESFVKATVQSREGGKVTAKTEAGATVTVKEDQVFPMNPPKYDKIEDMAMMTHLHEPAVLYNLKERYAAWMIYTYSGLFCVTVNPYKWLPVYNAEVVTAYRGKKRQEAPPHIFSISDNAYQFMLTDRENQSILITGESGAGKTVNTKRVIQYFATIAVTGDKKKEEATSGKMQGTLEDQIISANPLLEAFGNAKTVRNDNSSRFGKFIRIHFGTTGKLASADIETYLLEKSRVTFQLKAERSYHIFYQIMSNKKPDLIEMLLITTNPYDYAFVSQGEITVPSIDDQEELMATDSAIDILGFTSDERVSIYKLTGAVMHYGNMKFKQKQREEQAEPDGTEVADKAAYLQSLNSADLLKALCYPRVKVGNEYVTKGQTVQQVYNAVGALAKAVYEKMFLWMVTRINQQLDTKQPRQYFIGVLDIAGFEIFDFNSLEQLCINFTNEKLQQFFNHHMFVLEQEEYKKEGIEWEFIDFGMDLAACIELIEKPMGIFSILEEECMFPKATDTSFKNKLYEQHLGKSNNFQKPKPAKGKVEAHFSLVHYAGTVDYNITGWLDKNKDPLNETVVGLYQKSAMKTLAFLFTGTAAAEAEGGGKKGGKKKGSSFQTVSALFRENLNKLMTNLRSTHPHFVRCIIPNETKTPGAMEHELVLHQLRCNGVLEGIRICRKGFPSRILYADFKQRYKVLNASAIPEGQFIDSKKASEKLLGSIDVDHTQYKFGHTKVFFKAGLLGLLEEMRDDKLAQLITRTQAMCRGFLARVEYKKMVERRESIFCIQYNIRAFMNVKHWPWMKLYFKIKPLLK
T1 sequence (P02602 whole entry partner, the tested form may be a part): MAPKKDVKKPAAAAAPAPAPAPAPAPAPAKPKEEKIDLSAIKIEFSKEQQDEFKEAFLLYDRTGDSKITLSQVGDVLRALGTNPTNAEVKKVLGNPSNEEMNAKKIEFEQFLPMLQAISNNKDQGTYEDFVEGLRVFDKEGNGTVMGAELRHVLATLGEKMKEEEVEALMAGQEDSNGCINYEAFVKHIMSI

A word on the Solubility: it is the concentration that dissolves in the medium under given conditions. Low values mean a poorly soluble substance, high ones a readily soluble substance. The IC50 is the concentration at which inhibition is half-maximal. A higher IC50 goes with lower potency. On to `Cc1ccc2c(c1)C(=O)C1(O)CCN(c3ccccc3)C1=N2` (centres unmarked) [blebbistatin], for which the results for the Solubility in data set [1] (0.1 vol/vol% DMSO in assay buffer) and in data set [1] (1 vol/vol% DMSO in assay buffer) were 10.9 ± 0.9 µM (≈ 3.19 µg/mL) and 9.3 ± 0.7 µM (≈ 2.72 µg/mL), respectively. The “Solubility in aqueous buffer” value in data set [1] (abstract statement) is recorded as “below 10 micromolar”. In addition, the “Time to drop to half concentration (precipitation kinetics)” value in data set [1] (freshly prepared 50 μM sample) is less than 20 min. The compound also showed an Equilibrium saturation concentration in data set [1] (reached in two hours from 50–100 μM) of 9 µM. Besides, the “Time constant τ of inhibition of blebbing” value with M2 cells (5 μM) is recorded as 24.6 ± 2 min; in the data set with M2 cells (10 μM), 10.5 ± 0.8 min; in the data set with M2 cells (25 μM) it was 5.4 ± 1 min. For the same compound, the IC50 is 0.3 ± 0.03 µM in data set [2] and 0.11 ± 0.009 µM in data set [3]. Further, the “Time within which amplitude of contraction and blood circulation dropped drastically” value in the data set on zebrafish heart muscle was “within the first hour”. For the same compound, the “Relative migration of HeLa cells” value in the data set on HeLa cells came to 51.4 ± 4.7%. Besides, in data set [4], the “Effect on pLLp migration” value is “halted pLLp migration”. Besides, the “Half inhibition time of maximal angular velocity” value in data set [5] was found to be 0.6 h.

For `Cc1ccc2c(c1)C(=O)[C@]1(O)CCN(c3ccc(N)cc3)C1=N2` [para-aminoblebbistatin], the “Concentration at which stable solutions are formed” value in data set [1] is given as “over 100 μM”. Moreover, the “Time constant τ of inhibition of blebbing” value is 25.0 ± 4.3 min in the data set with M2 cells (5 μM), 16.8 ± 1.6 min with M2 cells (10 μM), 9.9 ± 0.3 min with M2 cells (25 μM) and 7.8 ± 0.3 min with M2 cells (50 μM). Further, the figures for the IC50 in data set [2] and in data set [3] were 1.3 ± 0.1 µM and 0.47 ± 0.06 µM, respectively. Moreover, the “Time within which amplitude of contraction and blood circulation dropped drastically” value with zebrafish heart muscle is “within three hours”. For the same compound, in data set [3] (comparator not named (matches ratio to Bleb)), the “Fold higher IC50 of AmBleb on SkS1” value came to 4.3 times. Besides, in the data set with HeLa cells, the “Relative migration of HeLa cells” value worked out at 62.6 ± 3.6%. For the same compound, the “Effect on pLLp migration” value in data set [4] is “halted pLLp migration”. The “Half inhibition time of maximal angular velocity” value in data set [5] worked out at 3.2 h.
